Earlier results, collected in patent US20040176366A1, “Method of preventing or treating atherosclerosis or restenosis” (priority 2002, published 2004).

Test system: CMV
Conditions: rats, prophylaxis

## Nc1nc(O)c2ncn(COC(CO)CO)c2n1 [Ganciclovir]
  prevention of atherosclerosis resulting from CMV infection: prevent atherosclerosis resulting from CMV infection of rats
